Measurements reported in ChEMBL document CHEMBL3046643, “Effect of chronic treatment with new benzylidene-thiazolidine-2,4-dione (LPSF/GQ-06) with potential hypoglycemic on rat Leydig cell steroidogenesis” (Med Chem Res, 2013).
Calls of active or inactive are those of the source. The rule behind the calls is not given here.

Legend:
Rattus norvegicus [1] = assay: Induction of steroidogenesis in Rattus norvegicus Wistar albino (rat) Leydig cells assessed as increase in 22(R)-OH-C-induced testosterone level at 5 mg/kg, po after 15 days by radioimmunoassay (reference value: 83.5 +/- 3.36 no unit); type: functional
Rattus norvegicus [2] = assay: Induction of steroidogenesis in Rattus norvegicus Wistar albino (rat) Leydig cells assessed as increase in human chorionic gonadotropin-induced testosterone level at 5 mg/kg, po after 15 days by radioimmunoassay (reference value: 92.75 +/- 4.38 no unit); type: functional
Rattus norvegicus [3] = assay: Effect on P450scc expression in Rattus norvegicus Wistar albino (rat) Leydig cells at 5 mg/kg, po after 15 days by immunocytochemistry analysis relative to untreated control; type: functional, organism-based; parameters: dose 5 mg/kg
Rattus norvegicus [4] = assay: Induction of steroidogenesis in Rattus norvegicus Wistar albino (rat) assessed as increase in total plasma testosterone level at 5 mg/kg, po after 15 days (reference value: 2.01 +/- 1.21 ng/mL); type: functional
Rattus norvegicus [5] = assay: Effect on StAR expression in Rattus norvegicus Wistar albino (rat) Leydig cells at 5 mg/kg, po after 15 days by immunocytochemistry analysis relative to untreated control; type: functional, organism-based; parameters: dose 5 mg/kg
Rattus norvegicus [6] = assay: Induction of steroidogenesis in Rattus norvegicus Wistar albino (rat) Leydig cells assessed as increase in dbcAMP-induced testosterone level at 5 mg/kg, po after 15 days by radioimmunoassay (reference value: 69.83 +/- 1.85 no unit); type: functional
Rattus norvegicus [7] = assay: Induction of steroidogenesis in Rattus norvegicus Wistar albino (rat) Leydig cells assessed as increase in pregnenolone-induced testosterone level at 5 mg/kg, po after 15 days by radioimmunoassay (reference value: 34 +/- 5.49 no unit); type: functional
Rattus norvegicus [8] = assay: Toxicity in Rattus norvegicus Wistar albino (rat) Leydig cells assessed as morphological changes at 5 mg/kg, po after 15 days by electron transmission microscopic analysis relative to untreated control; type: organism-based; parameters: dose 5 mg/kg, route oral; conditions: in vivo, 360 h
Rattus norvegicus [9] = assay: Toxicity in Rattus norvegicus Wistar albino (rat) assessed as change in relative weight of testis at 5 mg/kg, po after 15 days; type: organism-based; parameters: dose 5 mg/kg, route oral; conditions: in vivo, 360 h
Rattus norvegicus [10] = assay: Toxicity in Rattus norvegicus Wistar albino (rat) assessed as change in body weight at 5 mg/kg, po after 15 days; type: organism-based; parameters: dose 5 mg/kg, route oral; conditions: in vivo, 360 h
Rattus norvegicus [11] = assay: Toxicity in Rattus norvegicus Wistar albino (rat) assessed as change in relative dry weight of seminal vesicle at 5 mg/kg, po after 15 days; type: organism-based; parameters: dose 5 mg/kg, route oral; conditions: in vivo, 360 h
Rattus norvegicus [12] = assay: Toxicity in Rattus norvegicus Wistar albino (rat) Leydig cells assessed as morphological changes at 5 mg/kg, po after 15 days by hematoxylin-eosin staining-based light microscopic analysis relative to untreated control; type: organism-based; parameters: dose 5 mg/kg, route oral; conditions: in vivo, 360 h

COc1cccc(OC)c1/C=C1\SC(=O)N(Cc2ccc(C)cc2)C1=O
testosterone level (Rattus norvegicus [1]): 118.3
testosterone level (Rattus norvegicus [2]): 164.1
Activity (Rattus norvegicus [3]): inactive
Activity (Rattus norvegicus [4]): 7.7 ng/mL
Activity (Rattus norvegicus [5]): inactive
testosterone level (Rattus norvegicus [6]): 154.16
testosterone level (Rattus norvegicus [7]): 56.66
Activity (Rattus norvegicus [8]): Non-toxic
Activity (Rattus norvegicus [9]): Non-toxic
Activity (Rattus norvegicus [10]): Non-toxic
Activity (Rattus norvegicus [11]): Non-toxic
Activity (Rattus norvegicus [12]): Non-toxic
